Assay results taken from patent US20070293399A1, “SUBSTITUTED DIAMINO-1,3,5-TRIAZINES, PROCESSES FOR THEIR PREPARATION AND THEIR USE AS HERBICIDES AND CROP GROWTH REGULATORS” (Bayer CropScience AG, priority 2006, published 2007).

What was measured:
[1] = tested on: Stellaria media, Lolium multiflorum, Amaranthus retroflexus, Sinapis alba, Avena sativa and Setaria viridis; assay: Pre-emergence herbicidal action (greenhouse pot test); type: in vivo; details: application rate of 1 kg or less of active substance per hectare; scored visually after 3 to 4 weeks in comparison to untreated controls
Source text: Seeds or rhizome pieces of mono- and dicotyledonous weed plants were placed in sandy loam in plastic pots and covered with soil. The inventive compounds, which have been formulated in the form of wettable powders or emulsion concentrates, were then applied to the surface of the covering soil as an aqueous suspension or emulsion in different dosages with an application rate of from 600 to 800 l/ha of water (converted).

[2] = tested on: Sinapis alba, Echinochloa crus-galli, Lolium multiflorum, Stellaria media, Cyperus iria, Amaranthus retroflexus, Setaria viridis, Avena sativa, Lamium …; assay: Post-emergence herbicidal action (greenhouse pot test); type: in vivo; details: application rate of 1 kg and less of active substance per hectare; treated at three-leaf stage; scored visually after approx. 3 to 4 weeks in comparison to untreated controls
Description: Seeds or rhizome pieces of mono- and dicotyledonous weeds were placed in sandy loam in plastic pots, covered with soil and grown in a greenhouse under good growth conditions. Three weeks after the sowing, the test plants were treated at the three-leaf stage. The inventive compounds formulated as spray powders or as emulsion concentrates were sprayed onto the green plant parts in various dosages with an application rate of from 600 to 800 l/ha of water (converted). After the test plants had been left to stand in the greenhouse under optimal growth conditions for approx. 3 to 4 weeks, the action of the preparations was scored visually in comparison to untreated controls. The inventive compositions also had good post-emergence herbicidal activity against a wide spectrum of economically important gramineous and broadleaf weeds.

| SMILES | herbicidal action against harmful plants in the pre-emergence method [1] | herbicidal action against harmful plants in the post-emergence method [2] |
| --- | --- | --- |
| CC(=O)Nc1ncnc(NC2c3cc(F)ccc3CC2C)n1 (racemic) [Compound 1.1] | very good herbicidal action | very good herbicidal action |
| CC1Cc2ccc(F)cc2C1Nc1ncnc(NC(=O)C(Cl)(Cl)Cl)n1 (racemic) [Compound 1.2] | very good herbicidal action | very good herbicidal action |
| CC1Cc2ccc(F)cc2C1Nc1ncnc(NC(=O)C(F)(F)F)n1 (racemic) [Compound 1.3] | very good herbicidal action | very good herbicidal action |
| CC1Cc2ccc(F)cc2C1Nc1ncnc(NC(=O)CCl)n1 (racemic) [Compound 1.4] | very good herbicidal action | very good herbicidal action |
| CCC(=O)Nc1ncnc(NC2c3cc(F)ccc3CC2C)n1 (racemic) [Compound 1.5] | very good herbicidal action | very good herbicidal action |
| COC(=O)Nc1nc(CF)nc(NC2c3cc(F)ccc3CC2C)n1 (racemic) [Compound 1.11] | very good herbicidal action | very good herbicidal action |
| CCC(=O)Nc1nc(CF)nc(NC2c3cc(F)ccc3CC2C)n1 (racemic) [Compound 1.12] | very good herbicidal action | very good herbicidal action |
| CC1Cc2ccc(F)cc2C1Nc1nc(CF)nc(NC(=O)C(F)(F)F)n1 (racemic) [Compound 1.13] | very good herbicidal action | very good herbicidal action |
| CC1Cc2ccc(F)cc2C1Nc1nc(CF)nc(NC(=O)C(Cl)(Cl)Cl)n1 (racemic) [Compound 1.14] | very good herbicidal action | very good herbicidal action |
| CC(=O)Nc1nc(NC2CCOc3c(C)cc(F)cc32)nc(C2CC2)n1 (racemic) [Compound 1.31] | very good herbicidal action | very good herbicidal action |
| COCc1nc(NC(C)=O)nc(NC2CCc3ccccc32)n1 (racemic) [Compound 1.32] | very good herbicidal action | very good herbicidal action |
| CC(=O)Nc1nc(NC2CCOc3c(C)cc(F)cc32)nc(C(C)Cc2ccc(F)cc2)n1 (racemic) [Compound 1.33] | very good herbicidal action | very good herbicidal action |
| CCC(=O)Nc1nc(NC2CCOc3c(C)cc(F)cc32)nc(C(C)Cc2ccc(F)cc2)n1 (racemic) [Compound 1.38] | very good herbicidal action | very good herbicidal action |
| COCc1nc(NC(C)=O)nc(NC2CCCc3c(C)cc(C)cc32)n1 (racemic) [Compound 1.39] | very good herbicidal action | very good herbicidal action |
| CC(=O)Nc1ncnc(NC2c3cccc(C)c3CC2C)n1 (racemic) [Compound 1.46] | very good herbicidal action | very good herbicidal action |
| CC(=O)Nc1ncnc(NC2CCOc3ccc(C)cc32)n1 (racemic) [Compound 1.47] | very good herbicidal action | very good herbicidal action |
| Cc1ccc2c(c1)C(Nc1nc(NC(=O)C(Cl)(Cl)Cl)nc(C(C)F)n1)CCO2 (racemic) [Compound 1.51] | very good herbicidal action | very good herbicidal action |
| Cc1ccc2c(c1C)OCCC2Nc1nc(NC(=O)C2CC2)nc(C2CC2)n1 (racemic) [Compound 1.70] | very good herbicidal action | very good herbicidal action |
| CC(=O)Nc1ncnc(N[C@@H]2CCCc3ccccc32)n1 [Compound 2.1, N1-{4-[(1R)-1,2,3,4-Tetrahydro-1-naphthylamino]-1,3,5-triazin-2-yl}acetamide] | very good herbicidal action | very good herbicidal action |
| CCC(=O)Nc1ncnc(N[C@@H]2CCCc3ccccc32)n1 [Compound 2.2] | very good herbicidal action | very good herbicidal action |
| CC(=O)Nc1ncnc(N[C@H]2c3cc(C)ccc3C[C@@H]2C)n1 [Compound 2.9] | very good herbicidal action | very good herbicidal action |
| Cc1ccc2c(c1)[C@H](Nc1ncnc(NC(=O)C(F)(F)F)n1)[C@@H](C)C2 [Compound 2.12, N-(4-{[(1R,2S)-2,6-Dimethyl-2,3-dihydro-1H-inden-1-yl]-amino}-1,3,5-triazin-2-yl)-2,2,2-trifluoroacetamide] | very good herbicidal action | very good herbicidal action |
| CC(=O)Nc1nc(N[C@H]2c3cc(C)ccc3C[C@@H]2C)nc([C@@H](C)F)n1 [Compound 2.13] | very good herbicidal action | very good herbicidal action |
| CCC(=O)Nc1nc(N[C@H]2c3cc(C)ccc3C[C@@H]2C)nc([C@@H](C)F)n1 [Compound 2.14] | very good herbicidal action | very good herbicidal action |
| Cc1ccc2c(c1)[C@H](Nc1nc(NC(=O)C(F)(F)F)nc([C@@H](C)F)n1)[C@@H](C)C2 [Compound 2.26] | very good herbicidal action | very good herbicidal action |
